Source: patent US11969490B2, “Hair conditioning composition with antimicrobial system” (The Procter & Gamble Company, priority 2020, dated 2024)

Test: Rheology Test Method (shear stress at 950 s^−1 via flow curve)
Type: physicochemical
Protocol: 2. Rheology Test Method Rheology is used to evaluate and characterise product samples. The two key rheology methods identified are mentioned below: • Shear Stress at 950 s^−1 via flow curve: This is the method to ramp up shear rate logarithmically from 0.1 to 1000 s^−1 in 1 min using a cone & plate geometry, and to read the shear stress value 6 (Pa) at shear rate 950 s^−1. • Delta in Rheology %: This is the percentage difference in rheology measurement following the formula below: Delta in Rheology %=((a−b)/b)×100% • where a is the post added product and b is the no post added product. If rheology reduction is more than 50%, it would indicate significant interaction with chassis and incompatible.

| Compound | rheology reduction / compatibility with formulation, in words |
| --- | --- |
| CC(=O)c1ccc(O)cc1 [4-Hydroxyacetophenone] | no significant rheology reduction |
| CCCCCCCC(=O)OCC(O)CO (stereo not shown) [Glyceryl caprylate] | no significant rheology reduction |
| O=C([O-])c1ccccc1.[Na+] [Sodium benzoate, reference compound] | significant rheology reduction |
| Pentylene Glycol | no significant rheology reduction |
